Reference: patent US20250011368A1, “DLL3 TARGETING PEPTIDES AND CONSTRUCTS THEREOF” (MARIANA ONCOLOGY INC., priority 2023, published 2025)
Numbered stars: 1 amine (or outer) side, 2 acyl side, 3 side chain; on linkers, the order of the positions; unused ones are H or OH. Bridge positions count the residues as written; N and C are the ends. Square brackets hold non-standard residues; d marks the D form. Side chains are listed from the residue outwards. Peptide text beside a SMILES is read from it. * marks the point of attachment. X4 = O=C(O)CN1CCN(CC(=O)O)CCN(CC(=O)N[C@H]2CC[C@H](CC(=O)*)CC2)CCN(CC(=O)O)CC1; X9 = O=C(O)CN1CCN(CC(=O)O)CCN(CC(=O)NCCCOCCOCCOCCCN*)CCN(CC(=O)O)CC1; DOTA = O=C(O)CN1CCN(CC(=O)O)CCN(CC(=O)*)CCN(CC(=O)O)CC1; Trp(7-Me) = Cc1cccc2c(C[C@H](N)C(=O)O)c[nH]c12; Trp(7-aza) = N[C@@H](Cc1c[nH]c2ncccc12)C(=O)O; 2Nal = N[C@@H](Cc1ccc2ccccc2c1)C(=O)O; Nva(3-Et) = CCC(CC)[C@H](N)C(=O)O; Cha = N[C@@H](CC1CCCCC1)C(=O)O; Chg = N[C@H](C(=O)O)C1CCCCC1; Suc = O=C(CCC(=O)[*:2])[*:1]

Biological target: T1, human DLL3 (Homo sapiens, UniProt Q9NYJ7)
T1 sequence (Q9NYJ7 27-618): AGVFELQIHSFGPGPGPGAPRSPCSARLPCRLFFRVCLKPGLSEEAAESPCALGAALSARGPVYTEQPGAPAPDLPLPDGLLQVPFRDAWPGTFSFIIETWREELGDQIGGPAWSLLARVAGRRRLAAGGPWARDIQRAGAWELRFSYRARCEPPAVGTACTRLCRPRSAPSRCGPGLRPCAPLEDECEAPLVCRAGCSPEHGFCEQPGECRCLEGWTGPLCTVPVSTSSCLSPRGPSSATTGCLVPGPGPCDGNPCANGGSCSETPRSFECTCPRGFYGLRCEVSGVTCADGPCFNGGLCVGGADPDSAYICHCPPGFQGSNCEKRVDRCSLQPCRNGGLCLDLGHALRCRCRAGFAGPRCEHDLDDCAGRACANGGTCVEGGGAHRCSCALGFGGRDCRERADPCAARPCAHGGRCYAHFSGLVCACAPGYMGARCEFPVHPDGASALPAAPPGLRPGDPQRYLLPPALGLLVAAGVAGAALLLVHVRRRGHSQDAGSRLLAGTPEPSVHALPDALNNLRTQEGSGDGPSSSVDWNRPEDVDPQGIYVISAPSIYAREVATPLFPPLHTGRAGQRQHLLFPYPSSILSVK
Test: Affinity determination by Surface Plasmon Resonance (SPR)
Assay type: binding
Settings: 25° C., biotinylated human DLL3 immobilized on streptavidin sensor chip, 1:1 binding model; read-out: SPR KD
Summary of the method: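 Biotinylated human DLL3 was captured on a streptavidin chip with a reference surface. Compounds at several concentrations were injected at 100 μL/minute in phosphate buffer (137 mM NaCl, 2.7 mM KCl, 0.05% P20, 2% DMSO). Affinity and kinetics came from 1:1 model fits of the sensorgrams.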

Question: CC(=O)N[C@@H](Cc1c[nH]c2ccccc12)C(=O)N[C@H](C(=O)N[C@@H](CC1CCCCC1)C(=O)N[C@H]1CSSC[C@@H](C(=O)N[C@@H](Cc2c[nH]c3ncccc23)C(=O)N2CCC[C@H]2C(=O)N[C@H](CCCCNC(=O)CN2CCN(CC(=O)O)CCN(CC(=O)O)CCN(CC(=O)O)CC2)C(N)=O)NC(=O)[C@H](CC(=O)O)NC(=O)[C@H](Cc2cnc[nH]2)NC(=O)[C@H](Cc2ccc3ccccc3c2)NC(=O)[C@H](CC(N)=O)NC(=O)[C@H](C)NC1=O)[C@@H](C)O [compound 195, Ac-W-T-(CHA)-C(3)-A-N-(2Nal)-H-D-C(3)-(7-Aza-W)-P-[D-Lys(DOTA)]-NH2] (Ac-WT[Cha]CAN[2Nal]HDC[Trp(7-aza)]P[dK](DOTA)-NH2; disulfide 4-10) was tested. Which Kd did it give?
Answer: < 1 nM

Question: How did the Kd turn out when CCC(CC)[C@H](NC(=O)[C@@H](NC(=O)[C@H](Cc1c[nH]c2ccccc12)NC(C)=O)[C@@H](C)O)C(=O)N[C@H]1CSSC[C@@H](C(=O)N[C@@H](Cc2c[nH]c3ncccc23)C(=O)N2CCC[C@H]2C(=O)N[C@H](CCCCNC(=O)CN2CCN(CC(=O)O)CCN(CC(=O)O)CCN(CC(=O)O)CC2)C(N)=O)NC(=O)[C@H](CC(=O)O)NC(=O)[C@H](Cc2cnc[nH]2)NC(=O)[C@H](Cc2ccc3ccccc3c2)NC(=O)[C@H](CC(N)=O)NC(=O)[C@H](C)NC1=O [compound 196, Ac-W-T-(Env)-C(3)-A-N-(2Nal)-H-D-C(3)-(7-Aza-W)-P-[D-Lys(DOTA)]-NH2] (Ac-WT[Nva(3-Et)]CAN[2Nal]HDC[Trp(7-aza)]P[dK](DOTA)-NH2; disulfide 4-10) was run?
Answer: < 1 nM

Question: How did the Kd turn out when CC(=O)N[C@@H](Cc1c[nH]c2ccccc12)C(=O)N[C@H](C(=O)N[C@H](C(=O)N[C@H]1CSSC[C@@H](C(=O)N[C@@H](Cc2c[nH]c3ncccc23)C(=O)N2CCC[C@H]2C(=O)N[C@H](CCCCNC(=O)CN2CCN(CC(=O)O)CCN(CC(=O)O)CCN(CC(=O)O)CC2)C(N)=O)NC(=O)[C@H](CC(=O)O)NC(=O)[C@H](Cc2cnc[nH]2)NC(=O)[C@H](Cc2ccc3ccccc3c2)NC(=O)[C@H](C)NC(=O)[C@H](CC(N)=O)NC1=O)C1CCCCC1)[C@@H](C)O [compound 197, Ac-W-T-(Chg)-C(3)-N-A-(2Nal)-H-D-C(3)-(7-Aza-W)-P-[D-Lys(DOTA)]-NH2] (Ac-WT[Chg]CNA[2Nal]HDC[Trp(7-aza)]P[dK](DOTA)-NH2; disulfide 4-10) was run?
Answer: < 1 nM

Question: For CC(=O)N[C@@H](Cc1c[nH]c2ccccc12)C(=O)N[C@H](C(=O)N[C@@H](CC1CCCCC1)C(=O)N[C@H]1CSSC[C@@H](C(=O)N[C@@H](Cc2c[nH]c3ncccc23)C(=O)N2CCC[C@H]2C(=O)N[C@H](CCCCNC(=O)CN2CCN(CC(=O)O)CCN(CC(=O)O)CCN(CC(=O)O)CC2)C(N)=O)NC(=O)[C@H](CC(=O)O)NC(=O)[C@H](Cc2cnc[nH]2)NC(=O)[C@H](Cc2ccc3ccccc3c2)NC(=O)[C@H](C)NC(=O)[C@H](CC(N)=O)NC1=O)[C@@H](C)O [compound 198, Ac-W-T-(CHA)-C(3)-N-A-(2Nal)-H-D-C(3)-(7-Aza-W)-P-[D-Lys(DOTA)]-NH2] (Ac-WT[Cha]CNA[2Nal]HDC[Trp(7-aza)]P[dK](DOTA)-NH2; disulfide 4-10), which Kd is on record?
Answer: < 1 nM

Question: CCC(CC)[C@H](NC(=O)[C@@H](NC(=O)[C@H](Cc1c[nH]c2ccccc12)NC(C)=O)[C@@H](C)O)C(=O)N[C@H]1CSSC[C@@H](C(=O)N[C@@H](Cc2c[nH]c3ncccc23)C(=O)N2CCC[C@H]2C(=O)N[C@H](CCCCNC(=O)CN2CCN(CC(=O)O)CCN(CC(=O)O)CCN(CC(=O)O)CC2)C(N)=O)NC(=O)[C@H](CC(=O)O)NC(=O)[C@H](Cc2c[nH]cn2)NC(=O)[C@H](Cc2ccc3ccccc3c2)NC(=O)[C@H](C)NC(=O)[C@H](CC(N)=O)NC1=O [compound 199, Ac-W-T-(Env)-C(3)-N-A-(2Nal)-H-D-C(3)-(7-Aza-W)-P-[D-Lys(DOTA)]-NH2] (Ac-WT[Nva(3-Et)]CNA[2Nal]HDC[Trp(7-aza)]P[dK](DOTA)-NH2; disulfide 4-10) was tested. Which Kd did it give?
Answer: < 1 nM

Question: CCC(CC)[C@H](NC(=O)[C@@H](NC(=O)[C@H](Cc1c[nH]c2ccccc12)NC(C)=O)[C@@H](C)O)C(=O)N[C@H]1CSSC[C@@H](C(=O)N[C@@H](Cc2c[nH]c3ncccc23)C(=O)N2CCC[C@H]2C(=O)N[C@H](CCCCNC(=O)C[C@H]2CC[C@H](NC(=O)CN3CCN(CC(=O)O)CCN(CC(=O)O)CCN(CC(=O)O)CC3)CC2)C(N)=O)NC(=O)[C@H](CC(=O)O)NC(=O)[C@H](Cc2cnc[nH]2)NC(=O)[C@H](Cc2ccc3ccccc3c2)NC(=O)[C@H](CC(N)=O)NC(=O)[C@H](CC(N)=O)NC1=O [compound 202, Ac-W-T-(Env)-C(3)-N-N-(2Nal)-H-D-C(3)-(7-Aza-W)-P-[D-Lys(Chx-DOTA)]-NH2] (Ac-WT[Nva(3-Et)]CNN[2Nal]HDC[Trp(7-aza)]P[dK](X4)-NH2; disulfide 4-10) was tested. Which Kd did it give?
Answer: 1 to 10 nM

Question: CC(=O)N[C@@H](Cc1c[nH]c2ccccc12)C(=O)N[C@H](C(=O)N[C@H](C(=O)N[C@H]1CSSC[C@@H](C(=O)N[C@@H](Cc2c[nH]c3ncccc23)C(=O)N2CCC[C@H]2C(=O)N[C@H](CCCCNC(=O)C[C@H]2CC[C@H](NC(=O)CN3CCN(CC(=O)O)CCN(CC(=O)O)CCN(CC(=O)O)CC3)CC2)C(N)=O)NC(=O)[C@H](CC(=O)O)NC(=O)[C@H](Cc2cnc[nH]2)NC(=O)[C@H](Cc2ccc3ccccc3c2)NC(=O)[C@H](CC(N)=O)NC(=O)[C@H](CC(N)=O)NC1=O)C1CCCCC1)[C@@H](C)O [compound 203, Ac-W-T-(Chg)-C(3)-N-N-(2Nal)-H-D-C(3)-(7-Aza-W)-P-[D-Lys(Chx-DOTA)]-NH2] (Ac-WT[Chg]CNN[2Nal]HDC[Trp(7-aza)]P[dK](X4)-NH2; disulfide 4-10) was tested. Which Kd did it give?
Answer: < 1 nM

Question: Which Kd does the source give for CCC(CC)[C@H](NC(=O)[C@@H](NC(=O)[C@H](Cc1c[nH]c2ccccc12)NC(C)=O)[C@@H](C)O)C(=O)N[C@H]1CSSC[C@@H](C(=O)N[C@@H](Cc2c[nH]c3ncccc23)C(=O)N2CCC[C@H]2C(=O)N[C@H](CCCCNC(=O)CCC(=O)NCCCOCCOCCOCCCNC(=O)CN2CCN(CC(=O)O)CCN(CC(=O)O)CCN(CC(=O)O)CC2)C(N)=O)NC(=O)[C@H](CC(=O)O)NC(=O)[C@H](Cc2c[nH]cn2)NC(=O)[C@H](Cc2ccc3ccccc3c2)NC(=O)[C@H](CC(N)=O)NC(=O)[C@H](CC(N)=O)NC1=O [compound 204, Ac-W-T-(Env)-C(3)-N-N-(2Nal)-H-D-C(3)-(7-Aza-W)-P-[D-Lys(G-G-TTDS-DOTA)]-NH2] (Ac-WT[Nva(3-Et)]CNN[2Nal]HDC[Trp(7-aza)]P[dK]([Suc-X9])-NH2; disulfide 4-10) here?
Answer: < 1 nM

Question: Which Kd does the source give for CC[C@H](C)[C@H](NC(=O)[C@@H](NC(=O)[C@H](Cc1c[nH]c2c(C)cccc12)NC(C)=O)[C@@H](C)O)C(=O)N[C@H]1CSSC[C@@H](C(=O)N[C@@H](Cc2c[nH]c3ccccc23)C(=O)N2CCC[C@H]2C(=O)N[C@H](CCCCNC(=O)CN2CCN(CC(=O)O)CCN(CC(=O)O)CCN(CC(=O)O)CC2)C(N)=O)NC(=O)[C@H](CC(=O)O)NC(=O)[C@H](Cc2cnc[nH]2)NC(=O)[C@H](Cc2ccc3ccccc3c2)NC(=O)[C@H](CC(N)=O)NC(=O)[C@H](CC(N)=O)NC1=O [compound 206, Ac-(7-Me-W)-T-I-C(3)-N-N-(2Nal)-H-D-C(3)-W-P-[D-Lys(DOTA)]-NH2] (Ac-[Trp(7-Me)]TICNN[2Nal]HDCWP[dK](DOTA)-NH2; disulfide 4-10) here?
Answer: < 1 nM
